Data reported in patent US20230017045A1, “PYRIDINE AND PYRIMIDINE CARBOXYLATE HERBICIDES AND METHODS OF USE THEREOF” (Dow AgroSciences LLC, priority 2017, published 2023).

test system: test plant species; experiment: Post-emergent herbicidal activity test (greenhouse, foliar spray, visual growth reduction); type: in vivo; settings: post-emergence, 336 h, ALOMY: blackgrass (Alopecurus myosuroides), 140 g ai/ha, 14 days after application, read-out: Visual Growth Reduction (%) 14 Days After Application, ALOMY
Experimental: Post-emergent Test: Seeds or nutlets of the desired test plant species were planted in Sun Gro Metro-Mix® 360 planting mixture, which typically has a pH of 6.0 to 6.8 and an organic matter content of about 30 percent, in plastic pots with a surface area of 64 square centimeters. In some aspects, to ensure good germination and healthy plants, a fungicide treatment and/or other chemical or physical treatment was applied. The plants were grown for 7-21 d in a greenhouse with an approximate 15 h photoperiod which was maintained at 23-29° C. during the day and 22-28° C. during the night. Nutrients and water were added on a regular basis and supplemental lighting was provided with overhead metal halide 1000-Watt lamps as necessary. Plants were used for testing when they reached the first or second true leaf stage. A weighed amount, determined by the highest rate to be tested, of each test compound was placed in a 25 mL glass vial and was dissolved in 4 mL of a 97:3 v/v mixture of acetone and DMSO to obtain concentrated stock solutions. […] The concentrated stock solutions obtained were diluted with 20 mL of an aqueous mixture containing acetone, water, isopropyl alcohol, DMSO, […] crop oil concentrate, and X-77 surfactant in a 48.5:39:10:1.5:1.0:0.02 v/v ratio to obtain spray solutions containing the application rate. Compound requirements are based upon a 12 mL application volume at a rate of 187 liters per hectare (L/ha). Formulated compounds were applied to the plant material with an overhead Mandel track sprayer equipped with […] nozzles calibrated to deliver 187 L/ha over an application area of 0.64 square meters at a spray height of 18 inches (43 cm) above the average plant canopy height. Control plants were sprayed in the same manner with the solvent blank. The treated plants and control plants were placed in a greenhouse as described above and watered by subirrigation to prevent wash-off of the test compounds. After 14 d, the condition of the test plants as compared with that of the nontreated and control plants was determined visually and scored on a scale of 0 to 100 percent where 0 corresponds to no injury and 100 corresponds to complete control. In the reporting of the results, Table A: Percent Growth Reduction Conversion Table was used.

| SMILES | pest or weed control at 140 g/ha [%] |
| --- | --- |
| COC(=O)c1nc(-c2ncc(C(F)(F)F)cc2Cl)ccc1Cl [F101, methyl 3′,5-dichloro-5′-(trifluoromethyl)-[2,2′-bipyridine]-6-carboxylate] | 0 to 29 |

same assay, conditions: post-emergence, 336 h, AMARE: redroot pigweed (Amaranthus retroflexus), 140 g ai/ha, 14 days after application, read-out: Visual Growth Reduction (%) 14 Days After Application, AMARE

| SMILES | pest or weed control at 140 g/ha [%] |
| --- | --- |
| COC(=O)c1nc(-c2ncc(C(F)(F)F)cc2Cl)ccc1Cl [F101, methyl 3′,5-dichloro-5′-(trifluoromethyl)-[2,2′-bipyridine]-6-carboxylate] | 95 to 100 |

same assay, conditions: post-emergence, 336 h, AVEFA: wild oat (Avena fatua), 140 g ai/ha, 14 days after application, read-out: Visual Growth Reduction (%) 14 Days After Application, AVEFA

| SMILES | pest or weed control at 140 g/ha [%] |
| --- | --- |
| COC(=O)c1nc(-c2ncc(C(F)(F)F)cc2Cl)ccc1Cl [F101, methyl 3′,5-dichloro-5′-(trifluoromethyl)-[2,2′-bipyridine]-6-carboxylate] | 0 to 29 |

same assay, conditions: post-emergence, 336 h, CHEAL: lambsquarters (Chenopodium album), 140 g ai/ha, 14 days after application, read-out: Visual Growth Reduction (%) 14 Days After Application, CHEAL

| SMILES | pest or weed control at 140 g/ha [%] |
| --- | --- |
| COC(=O)c1nc(-c2ncc(C(F)(F)F)cc2Cl)ccc1Cl [F101, methyl 3′,5-dichloro-5′-(trifluoromethyl)-[2,2′-bipyridine]-6-carboxylate] | 95 to 100 |

same assay, conditions: post-emergence, 336 h, CIRAR: canada thistle (Cirsium arvense), 140 g ai/ha, 14 days after application, read-out: Visual Growth Reduction (%) 14 Days After Application, CIRAR

| SMILES | pest or weed control at 140 g/ha [%] |
| --- | --- |
| COC(=O)c1nc(-c2ncc(C(F)(F)F)cc2Cl)ccc1Cl [F101, methyl 3′,5-dichloro-5′-(trifluoromethyl)-[2,2′-bipyridine]-6-carboxylate] | 85 to 94 |

same assay, conditions: post-emergence, 336 h, CYPES: yellow nutsedge (Cyperus esculentus), 140 g ai/ha, 14 days after application, read-out: Visual Growth Reduction (%) 14 Days After Application, CYPES

| SMILES | pest or weed control at 140 g/ha [%] |
| --- | --- |
| COC(=O)c1nc(-c2ncc(C(F)(F)F)cc2Cl)ccc1Cl [F101, methyl 3′,5-dichloro-5′-(trifluoromethyl)-[2,2′-bipyridine]-6-carboxylate] | 75 to 84 |

same assay, conditions: post-emergence, 336 h, DIGSA: crabgrass (Digitaria sanguinalis), 140 g ai/ha, 14 days after application, read-out: Visual Growth Reduction (%) 14 Days After Application, DIGSA

| SMILES | pest or weed control at 140 g/ha [%] |
| --- | --- |
| COC(=O)c1nc(-c2ncc(C(F)(F)F)cc2Cl)ccc1Cl [F101, methyl 3′,5-dichloro-5′-(trifluoromethyl)-[2,2′-bipyridine]-6-carboxylate] | 95 to 100 |

same assay, conditions: post-emergence, 336 h, ECHCG: barnyardgrass (Echinochloa crus-galli), 140 g ai/ha, 14 days after application, read-out: Visual Growth Reduction (%) 14 Days After Application, ECHCG

| SMILES | pest or weed control at 140 g/ha [%] |
| --- | --- |
| COC(=O)c1nc(-c2ncc(C(F)(F)F)cc2Cl)ccc1Cl [F101, methyl 3′,5-dichloro-5′-(trifluoromethyl)-[2,2′-bipyridine]-6-carboxylate] | 85 to 94 |

same assay, conditions: post-emergence, 336 h, IPOHE: ivy-leaf morning glory (Ipomoea hederacea), 140 g ai/ha, 14 days after application, read-out: Visual Growth Reduction (%) 14 Days After Application, IPOHE

| SMILES | pest or weed control at 140 g/ha [%] |
| --- | --- |
| COC(=O)c1nc(-c2ncc(C(F)(F)F)cc2Cl)ccc1Cl [F101, methyl 3′,5-dichloro-5′-(trifluoromethyl)-[2,2′-bipyridine]-6-carboxylate] | 95 to 100 |

same assay, conditions: post-emergence, 336 h, KCHSC: kochia (Bassia scoparia), 140 g ai/ha, 14 days after application, read-out: Visual Growth Reduction (%) 14 Days After Application, KCHSC

| SMILES | pest or weed control at 140 g/ha [%] |
| --- | --- |
| COC(=O)c1nc(-c2ncc(C(F)(F)F)cc2Cl)ccc1Cl [F101, methyl 3′,5-dichloro-5′-(trifluoromethyl)-[2,2′-bipyridine]-6-carboxylate] | 95 to 100 |

same assay, conditions: post-emergence, 336 h, ORYSA: rice (Oryza sativa), 140 g ai/ha, 14 days after application, read-out: Visual Growth Reduction (%) 14 Days After Application, ORYSA

| SMILES | pest or weed control at 140 g/ha [%] |
| --- | --- |
| COC(=O)c1nc(-c2ncc(C(F)(F)F)cc2Cl)ccc1Cl [F101, methyl 3′,5-dichloro-5′-(trifluoromethyl)-[2,2′-bipyridine]-6-carboxylate] | 0 to 29 |

same assay, conditions: post-emergence, 336 h, SETFA: giant foxtail (Setaria faberi), 140 g ai/ha, 14 days after application, read-out: Visual Growth Reduction (%) 14 Days After Application, SETFA

| SMILES | pest or weed control at 140 g/ha [%] |
| --- | --- |
| COC(=O)c1nc(-c2ncc(C(F)(F)F)cc2Cl)ccc1Cl [F101, methyl 3′,5-dichloro-5′-(trifluoromethyl)-[2,2′-bipyridine]-6-carboxylate] | 75 to 84 |

same assay, conditions: post-emergence, 336 h, SORVU: grain sorghum (Sorghum vulgare), 140 g ai/ha, 14 days after application, read-out: Visual Growth Reduction (%) 14 Days After Application, SORVU

| SMILES | pest or weed control at 140 g/ha [%] |
| --- | --- |
| COC(=O)c1nc(-c2ncc(C(F)(F)F)cc2Cl)ccc1Cl [F101, methyl 3′,5-dichloro-5′-(trifluoromethyl)-[2,2′-bipyridine]-6-carboxylate] | 95 to 100 |

same assay, conditions: post-emergence, 336 h, STEME: common chickweed (Stellaria media), 140 g ai/ha, 14 days after application, read-out: Visual Growth Reduction (%) 14 Days After Application, STEME

| SMILES | pest or weed control at 140 g/ha [%] |
| --- | --- |
| COC(=O)c1nc(-c2ncc(C(F)(F)F)cc2Cl)ccc1Cl [F101, methyl 3′,5-dichloro-5′-(trifluoromethyl)-[2,2′-bipyridine]-6-carboxylate] | 0 to 29 |

same assay, conditions: post-emergence, 336 h, TRZAS: wheat, spring (Triticum aestivum), 140 g ai/ha, 14 days after application, read-out: Visual Growth Reduction (%) 14 Days After Application, TRZAS

| SMILES | pest or weed control at 140 g/ha [%] |
| --- | --- |
| COC(=O)c1nc(-c2ncc(C(F)(F)F)cc2Cl)ccc1Cl [F101, methyl 3′,5-dichloro-5′-(trifluoromethyl)-[2,2′-bipyridine]-6-carboxylate] | 60 to 74 |
